Test results taken from US20140323593A1, “METHODS AND APPARATUS FOR THE CONTROL OF ADENOSINE TRIPHOSPHATE SYNTHASE ACTIVITY WITHIN LIVING ORGANISMS, AND CONDITIONING OF WATER-BASED FLUIDS AND SUBSTANCES USING MAGNETIC FIELD EXPOSURES OR THEIR WITHDRAWAL” (priority 2013, published 2014).

Columns and labels:
[1] = system: leukemic cell K562; test: average reductions in chromosome numbers (karyotype contraction) in K562; format: cell-based, human
Source text: First, we observed that 5 different cancer cell lines representative of the most common human cancers display a reduction in their chromosome numbers when exposed to 60-Hz MFs (Appendix 1). Reductions in chromosome numbers result from metabolic restriction (Li et al., 2012), which can be caused by impaired ATPS function.
Fourth, Russian physicists (Semikhina and Kiselev, 1981) observed resonances for water at specific frequency-amplitude combinations that are broadened by the presence of even small levels of impurities. They detected one maximum at 156.2-Hz and 15.45 μT for 7° C. pure water (Semikhina et al, 1988). In our experiments compiling average chromosome losses over frequency in anoxic K562 (5% carbon dioxide and 37° C.) 6-day tests at 1 μT, a wide resonance was measured as follows: −3.6±0.79 at 50-Hz, −9.36±1.06 at 60-Hz, −12.71±1.82 at 120-Hz and −9.8±1.31 at 155-Hz. […] The ATPS resonance at […] we documented is indeed wider than that reported by Semikhina for pure water. […]
Our laboratory has detected ATPSI at all tested frequencies and at all MF intensities above 25 nT using measurements of karyotype contraction (see Appendix 1) in numerous cell lines: K562 and HEL (erythro-leukemias). […] In our experiments, ATPSI detected by karyotype contractions varied only weakly with field intensities between 25 nT and 5 μT, but probably cover the range of 10 nT to 879 μT. […]

[2] = system: 60 cancer cell lines maintained by the US National Cancer Institute (NCI-60); conditions: mean over NCI-60 cell lines; read-out: IC50 (the concentration inhibiting proliferation rate by 50%), mean; cited from earlier work

| SMILES | average reductions in chromosome numbers ([1]; K562, substance alone for 3 days, metformin 0.01 mg/l, resistin 40 ng/l) | average reductions in chromosome numbers (losses) with 1 μT added ([1]; K562, 1 μT magnetic field added to metformin 0.01 mg/l or resistin 40 ng/l, 1 μT alone 7.5) | IC50 [2] [µM] |
| --- | --- | --- | --- |
| CN(C)C(=N)N=C(N)N [Metformin] | 9 | 11±0.34 | – |
| CC[C@H]1/C=C/C=C/C[C@@H](C)[C@H](O)[C@@](C)(O)C(=O)[C@@H](C)[C@H](O)[C@@H](C)C(=O)[C@@H](C)[C@H](O)[C@@H](C)/C=C/C(=O)O[C@@H]2[C@H](C)[C@H](CC1)O[C@]1(CC[C@H](C)[C@H](C[C@@H](C)O)O1)[C@H]2C [oligomycin] | – | – | 0.3 |
